Measurements published in patent publication US10035799B2, “COMT inhibiting methods and compositions” (Lieber Institute for Brain Development, priority 2015, dated 2018).

target: T1, aromatic amino acid decarboxylase (AAAD) (Homo sapiens, UniProt P20711); experiment: not given; settings: given with L-DOPA; Nutt, Woodward et al. 1985; cited from earlier work
T1 sequence (P20711 1-480): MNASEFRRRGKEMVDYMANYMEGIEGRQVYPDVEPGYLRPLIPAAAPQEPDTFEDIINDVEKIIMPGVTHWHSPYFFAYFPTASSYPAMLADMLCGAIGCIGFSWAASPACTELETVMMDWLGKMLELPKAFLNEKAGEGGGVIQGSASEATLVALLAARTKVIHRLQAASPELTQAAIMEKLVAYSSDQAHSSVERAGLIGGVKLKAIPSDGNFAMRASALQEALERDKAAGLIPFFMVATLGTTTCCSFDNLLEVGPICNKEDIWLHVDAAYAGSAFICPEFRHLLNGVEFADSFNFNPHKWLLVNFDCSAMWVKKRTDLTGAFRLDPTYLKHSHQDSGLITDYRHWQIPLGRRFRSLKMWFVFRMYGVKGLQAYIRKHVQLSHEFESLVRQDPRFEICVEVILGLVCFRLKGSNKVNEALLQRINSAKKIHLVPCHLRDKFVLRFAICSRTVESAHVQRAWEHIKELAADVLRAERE

Row | SMILES | reduction of the efficacious L-DOPA dose
1 | C[C@@](Cc1ccc(O)c(O)c1)(NN)C(=O)O [Carbidopa] | 60-80%

tested on: not given; experiment: not given; settings: Nutt and Fellman 1984; cited from earlier work

Row | SMILES | percentage of exogenously administered L-DOPA that reaches the brain [%]
2 | N[C@@H](Cc1ccc(O)c(O)c1)C(=O)O [L-DOPA] | ~1

tested on: not given; experiment: not given; settings: Russ, et al. 1999; cited from earlier work

Row | SMILES | brain penetration
3 | Cc1ccc(C(=O)c2cc(O)c(O)c([N+](=O)[O-])c2)cc1 [tolcapone] | low but measurable
4 | CCN(CC)C(=O)/C(C#N)=C/c1cc(O)c(O)c([N+](=O)[O-])c1 [entacapone] | negligible

tested on: not given; experiment: not given; settings: clinical use; Olanow and Watkins 2007; cited from earlier work

Row | SMILES | liver injury
5 | Cc1ccc(C(=O)c2cc(O)c(O)c([N+](=O)[O-])c2)cc1 [tolcapone] | serious liver injury, including three deaths

target: T2, catechol-O-methyltransferase (COMT) (Homo sapiens, UniProt P21964); experiment: COMT inhibition assay (HTRF, production of S-adenosyl homocysteine); format: biochemical; settings: recombinant human COMT, HTRF SAH production; MB-COMT or S-COMT not stated for Table 1
T2 construct: M51A variant) was expressed in HEK 293F cells
T2 sequence (P21964 52-271 limits assumed): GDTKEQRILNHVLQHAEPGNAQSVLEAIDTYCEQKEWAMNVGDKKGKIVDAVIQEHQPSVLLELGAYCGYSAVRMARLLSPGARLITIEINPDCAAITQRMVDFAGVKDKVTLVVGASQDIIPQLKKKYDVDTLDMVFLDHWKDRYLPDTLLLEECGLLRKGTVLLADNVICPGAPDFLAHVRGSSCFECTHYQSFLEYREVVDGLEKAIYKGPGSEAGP
Summary of the method: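 SAH formed from SAM (20 μM) measured by HTRF with SAH standard curve; pIC50 from 4-parameter fit. MB-COMT (M51A, HEK293F membranes, 62 ng/well): 1.5 μM dopamine, 40 min, 37° C.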

Row | Activity range (pIC50, COMT inhibition) | SMILES
6 | +++ (a pIC50 of above about 7) | CC(C)CC1CCCN1S(=O)(=O)c1ccc(O)c2ncccc12 (stereo not shown) [Example 82, 5-(2-isobutylpyrrolidin-1-yl)sulfonylquinolin-8-ol]
7 | +++ (a pIC50 of above about 7) | O=S(=O)(c1ccc(O)c2ncccc12)C1CCCCC1 [Example 30, 5-cyclohexylsulfonylquinolin-8-ol]
8 | + (a pIC50 of from about 4.5 to 6) | O=S(=O)(c1cc(Cl)c(O)c2ncccc12)N1CCN(Cc2ccc(F)cc2)CC1 [Example 112, 7-chloro-5-[4-[(4-fluorophenyl)methyl]piperazin-1-yl]sulfonyl-quinolin-8-ol]
9 | +++ (a pIC50 of above about 7) | CCN(Cc1ccccc1)S(=O)(=O)c1ccc(O)c2ncccc12 [Example 56, N-benzyl-N-ethyl-8-hydroxy-quinoline-5-sulfonamide]
10 | +++ (a pIC50 of above about 7) | O=S(=O)(c1ccc(O)c2ncccc12)N1CCc2ccccc2C1 [Example 40, 5-(3,4-dihydro-1H-isoquinolin-2-ylsulfonyl)quinolin-8-ol]
11 | +++ (a pIC50 of above about 7) | COC(=O)N1CCN(S(=O)(=O)c2ccc(O)c3ncccc23)CC1 [Example 88, methyl 4-[(8-hydroxy-5-quinolyl)sulfonyl]piperazine-1-carboxylate]
12 | +++ (a pIC50 of above about 7) | N#Cc1ccccc1N1CCN(S(=O)(=O)c2ccc(O)c3ncccc23)CC1 [Example 90, 2-[4-[(8-hydroxy-5-quinolyl)sulfonyl]piperazin-1-yl]benzonitrile]
13 | +++ (a pIC50 of above about 7) | O=S(=O)(c1ccc(O)c2ncccc12)N1Cc2ccccc2C1 [Example 47, 5-isoindolin-2-ylsulfonylquinolin-8-ol]
14 | +++ (a pIC50 of above about 7) | O=S(=O)(c1ccc(O)c2ncccc12)N1CCCC1 [Example 59, 5-pyrrolidin-1-ylsulfonylquinolin-8-ol]
15 | +++ (a pIC50 of above about 7) | CC(C)C1CCCN1S(=O)(=O)c1ccc(O)c2ncccc12 (stereo not shown) [Example 78, 5-(2-isopropylpyrrolidin-1-yl)sulfonylquinolin-8-ol]
16 | +++ (a pIC50 of above about 7) | O=S(=O)(c1ccc(O)c2ncccc12)N1CCC(c2ccccc2)CC1 [Example 73, 5-[(4-phenyl-1-piperidyl)sulfonyl]quinolin-8-ol]
17 | +++ (a pIC50 of above about 7) | C[C@H](c1ccccc1)N(C)S(=O)(=O)c1cc(F)c(O)c2ncccc12 [Example 123, 7-fluoro-8-hydroxy-N-methyl-N-[(1R)-1-phenylethyl]quinoline-5-sulfonamide]
18 | +++ (a pIC50 of above about 7) | Cc1ccc(S(=O)(=O)c2ccc(O)c3ncccc23)cc1C [Example 3, 5-(3,4-dimethylphenyl)sulfonylquinolin-8-ol]
19 | + (a pIC50 of from about 4.5 to 6) | Cc1cc(S(=O)(=O)N2CCN(Cc3ccc(F)cc3)CC2)c2cccnc2c1O [Example 114, 5-[4-[(4-fluorophenyl)methyl]piperazin-1-yl]sulfonyl-7-methyl-quinolin-8-ol]
20 | +++ (a pIC50 of above about 7) | O=S(=O)(c1ccc(O)c2ncccc12)N1CCCC1c1ccccc1 (stereo not shown) [Example 58, 5-(2-phenylpyrrolidin-1-yl)sulfonylquinolin-8-ol]

Row | SMILES | Activity range (pIC50, COMT inhibition)
21 | CC(C)(C)OC(=O)N1CCN(S(=O)(=O)c2ccc(O)c3ncccc23)CC1 [Example 103, tert-butyl 4-[(8-hydroxy-5-quinolyl)sulfonyl]piperazine-1-carboxylate] | ++ (a pIC50 of from about great than 6 to 7)
22 | O=S(=O)(c1ccncc1)c1ccc(O)c2ncccc12 [Example 17, 5-(4-pyridylsulfonyl)quinolin-8-ol] | ++ (a pIC50 of from about great than 6 to 7)
23 | O=S(=O)(c1ccc(O)c2ncccc12)C1CCN(Cc2ccc(F)cc2)CC1 [Example 35, 5-[[1-[(4-fluorophenyl)methyl]-4-piperidyl]sulfonyl]quinolin-8-ol] | ++ (a pIC50 of from about great than 6 to 7)
24 | O=S(=O)(c1ccc(O)c2ncccc12)N1CCCC1c1cccnc1 (stereo not shown) [Example 72, 5-[2-(3-pyridyl)pyrrolidin-1-yl]sulfonylquinolin-8-ol] | ++ (a pIC50 of from about great than 6 to 7)
25 | CCN(CC)S(=O)(=O)c1ccc(O)c2ncccc12 [Example 68, N,N-diethyl-8-hydroxy-quinoline-5-sulfonamide] | ++ (a pIC50 of from about great than 6 to 7)
